Measured values taken from ChEMBL document CHEMBL5352386 (Eur J Med Chem, 2022).
The source made the active and inactive calls. The rule behind the calls is not given here.

Columns and labels:
[1] = target: Cholinesterase (Equus caballus, UniProt P81908); assay: Inhibition of equine serum BuChE using butyrylthiocholine iodide as substrate incubated for 10 mins followed by substrate addition by DTNB-reagent based Ellman's colorimetric assay
[2] = target: Cholinesterase (Homo sapiens, UniProt P06276); assay: Inhibition of human BuChE using butyrylthiocholine iodide as substrate incubated for 10 mins followed by substrate addition by DTNB-reagent based Ellman's colorimetric assay
Sequence of Cholinesterase (Homo sapiens, UniProt P06276) (P06276 whole entry): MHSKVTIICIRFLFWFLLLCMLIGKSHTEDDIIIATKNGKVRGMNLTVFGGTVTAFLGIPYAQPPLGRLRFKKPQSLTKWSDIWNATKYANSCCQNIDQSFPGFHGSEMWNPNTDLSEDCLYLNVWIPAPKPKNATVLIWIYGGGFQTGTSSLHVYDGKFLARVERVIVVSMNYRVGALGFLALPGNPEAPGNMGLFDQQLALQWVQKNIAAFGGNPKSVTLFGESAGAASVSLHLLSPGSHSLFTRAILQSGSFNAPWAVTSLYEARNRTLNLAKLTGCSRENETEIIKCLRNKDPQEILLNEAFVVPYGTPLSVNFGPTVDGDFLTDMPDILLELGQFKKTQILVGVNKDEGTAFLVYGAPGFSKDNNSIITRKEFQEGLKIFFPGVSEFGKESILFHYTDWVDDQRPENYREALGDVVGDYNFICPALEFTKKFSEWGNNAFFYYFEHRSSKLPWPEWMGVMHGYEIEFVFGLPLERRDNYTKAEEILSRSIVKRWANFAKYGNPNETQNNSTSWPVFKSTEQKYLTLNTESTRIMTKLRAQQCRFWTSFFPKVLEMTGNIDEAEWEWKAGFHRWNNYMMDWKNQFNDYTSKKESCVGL

[3] = tested on: PC-12; assay: Cytotoxicity against rat PC12 cells assessed as survival rate at 100 uM measured after 24 hrs by MTT assay relative to control; settings: PC-12, 24 h, read-out: Survival
[4] = tested on: SH-SY5Y; assay: Cytotoxicity against human SH-SY5Y cells assessed as survival rate at 2.5 uM measured after 24 hrs by MTT assay relative to control; format: functional; settings: read-out: Survival
[5] = Cytotoxicity against mouse BV-2 cells assessed as survival rate at 2.5 uM measured after 24 hrs by MTT assay relative to control; format: toxicity, cell-based; settings: read-out: Survival
[6] = tested on: L02; assay: Cytotoxicity against human L02 cells assessed as survival rate at 2.5 uM measured after 24 hrs by MTT assay relative to control; format: functional; settings: read-out: Survival
[7] = Acute toxicity in overnight fasted female ICR mouse assessed as animal death at 1 g/Kg, IG administered as single dose measured upto 15 days; settings: in vivo, po, 1000 mg/kg, 360 h, time < 15 day
[8] = AUC (0 to t) in Sprague-Dawley rat at 10 mg/kg, po measured upto 1440 mins by LC/MS/MS analysis; format: ADME, organism-based; parameters: time < 1440 min, dose 10 mg/kg, route po; settings: in vivo
[9] = tested on: SH-SY5Y; assay: Cytotoxicity against human SH-SY5Y cells assessed as survival rate at 100 uM measured after 24 hrs by MTT assay relative to control; format: functional; settings: read-out: Survival
[10] = Cytotoxicity against mouse BV-2 cells assessed as inhibition of cell growth measured after 24 hrs by MTT assay; format: toxicity, cell-based
[11] = tested on: L02; assay: Cytotoxicity against human L02 cells assessed as survival rate at 100 uM measured after 24 hrs by MTT assay relative to control; format: functional; settings: read-out: Survival
[12] = Acute toxicity in overnight fasted male ICR mouse assessed as animal death at 1 g/Kg, IG administered as single dose measured upto 15 days; settings: in vivo, po, 1000 mg/kg, 360 h, time < 15 day
[13] = Acute toxicity in overnight fasted male ICR mouse assessed as body weight loss at 1 g/Kg, IG administered as single dose measured upto 15 days; settings: in vivo, po, 1000 mg/kg, 360 h, time < 15 day
[14] = Acute toxicity in overnight fasted female ICR mouse assessed as body weight loss at 1 g/Kg, IG administered as single dose measured upto 15 days; settings: in vivo, po, 1000 mg/kg, 360 h, time < 15 day
[15] = Acute toxicity in overnight fasted male ICR mouse assessed as abnormal behavior at 1 g/Kg, IG administered as single dose measured upto 15 days; settings: in vivo, po, 1000 mg/kg, 360 h, time < 15 day
[16] = Acute toxicity in overnight fasted female ICR mouse assessed as abnormal behavior at 1 g/Kg, IG administered as single dose measured upto 15 days; settings: in vivo, po, 1000 mg/kg, 360 h, time < 15 day
[17] = Metabolic stability in human liver microsomes assessed as half life at 1 uM incubated upto 50 mins in presence of NADPH by LC/MS/MS analysis; format: ADME, Microsome
[18] = Metabolic stability in human liver microsomes assessed as parent compound remaining at 1 uM incubated upto 50 mins in presence of NADPH by LC/MS/MS analysis; format: ADME, Microsome; settings: read-out: Stability
[19] = AUC (0 to t) in Sprague-Dawley rat at 10 mg/kg, iv measured upto 1440 mins by LC/MS/MS analysis; format: ADME, organism-based; parameters: time < 1440 min, dose 10 mg/kg, route iv; settings: Sprague-Dawley, in vivo
[20] = AUC (0 to infinity) in Sprague-Dawley rat at 10 mg/kg, po measured upto 1440 mins by LC/MS/MS analysis; format: ADME, organism-based; parameters: dose 10 mg/kg, time < 1440 min, route po; settings: in vivo
[21] = AUC (0 to infinity) in Sprague-Dawley rat at 10 mg/kg, iv measured upto 1440 mins by LC/MS/MS analysis; format: ADME, organism-based; parameters: dose 10 mg/kg, time < 1440 min, route iv; settings: Sprague-Dawley, in vivo
[22] = MRT infinity in Sprague-Dawley rat at 10 mg/kg, po measured upto 1440 mins by LC/MS/MS analysis; format: ADME, organism-based; settings: in vivo
[23] = MRT infinity in Sprague-Dawley rat at 10 mg/kg, iv measured upto 1440 mins by LC/MS/MS analysis; format: ADME, organism-based; settings: in vivo
[24] = Half life in Sprague-Dawley rat at 10 mg/kg, po measured upto 1440 mins by LC/MS/MS analysis; format: ADME, organism-based; settings: in vivo
[25] = Half life in Sprague-Dawley rat at 10 mg/kg, iv measured upto 1440 mins by LC/MS/MS analysis; format: ADME, organism-based; settings: in vivo
[26] = Tmax in Sprague-Dawley rat at 10 mg/kg, po measured upto 1440 mins by LC/MS/MS analysis; format: ADME, organism-based; settings: in vivo
[27] = Cmax in Sprague-Dawley rat at 10 mg/kg, po measured upto 1440 mins by LC/MS/MS analysis; format: ADME, organism-based; parameters: time < 1440 min, dose 10 mg/kg, route po; settings: in vivo, 24 h
[28] = Cmax in Sprague-Dawley rat at 10 mg/kg, iv measured upto 1440 mins by LC/MS/MS analysis; format: ADME, organism-based; parameters: dose 10 mg/kg, time < 1440 min, route iv; settings: Sprague-Dawley, in vivo, read-out: Cmax
[29] = Oral bioavailability in Sprague-Dawley rat at 10 mg/kg measured upto 1440 mins by LC/MS/MS analysis; format: ADME, organism-based; settings: in vivo
[30] = Ratio of drug exposure in plasma to brain in ICR mouse measured after 10 mins by LC/MS/MS analysis; format: ADME, cell-free; settings: in vivo
[31] = Ratio of drug exposure in plasma to brain in ICR mouse measured after 20 mins by LC/MS/MS analysis; format: ADME, cell-free; settings: in vivo
[32] = Ratio of drug exposure in plasma to brain in ICR mouse measured after 30 mins by LC/MS/MS analysis; format: ADME, cell-free; settings: in vivo, 0.5 h
[33] = Ratio of drug exposure in plasma to brain in ICR mouse measured after 120 mins by LC/MS/MS analysis; format: ADME, cell-free; settings: in vivo, 2 h
[34] = Ratio of drug exposure in plasma to brain in ICR mouse measured after 60 mins by LC/MS/MS analysis; format: ADME, cell-free; settings: in vivo, 1 h
[35] = Ratio of drug exposure in plasma to brain in ICR mouse measured after 240 by LC/MS/MS analysis; format: ADME, cell-free; settings: in vivo, 4 h, time 240 min
[36] = Ratio of drug exposure in plasma to brain in ICR mouse measured after 480 mins by LC/MS/MS analysis; format: ADME, cell-free; settings: in vivo, 8 h
[37] = Cmax in ICR mouse plasma administered as oral dose by LC/MS/MS analysis; format: ADME; parameters: route po
[38] = Cmax in ICR mouse brain administered as oral dose by LC/MS/MS analysis; format: ADME, tissue-based; parameters: route po
[39] = AUC (0 to t) in ICR mouse plasma administered as oral dose by LC/MS/MS analysis; format: ADME; parameters: route po
[40] = AUC (0 to t) in ICR mouse brain administered as oral dose by LC/MS/MS analysis; format: ADME, tissue-based; parameters: route po
[41] = Ratio of Cmax in ICR mouse brain to Cmax in ICR mouse plasma; format: ADME, cell-free
[42] = Ratio of AUCt in ICR mouse brain to AUCt in ICR mouse plasma; format: ADME, cell-free
[43] = Drug uptake in ICR mouse central nervous system; format: ADME, tissue-based; settings: in vivo
[44] = tested on: Mus musculus; assay: Neuroprotective activity against Abeta42 induced cognition impairement in AD mouse model assessed as reduction in latency time to platform at 10 mg/kg, po measured after 14 days by Morris water maze analysis; format: functional, organism-based; settings: time 14.0 day
[45] = tested on: Mus musculus; assay: Neuroprotective activity against Abeta42 induced cognition impairement in AD mouse model assessed as reduction in confusion of escape trajectory at 10 mg/kg, po measured after 14 days; format: functional, organism-based; settings: time 14.0 day
[46] = tested on: SH-SY5Y; assay: Neuroprotective activity against Abeta1-42 induced toxicity in human SH-SY5Y cells at 1 to 5 uM preincubated for 1 hr with compound followed by co-incubation with Abeta1-42 and measured after 24 hrs by MTT assay; format: functional, cell-based; settings: dose 1-5 µM, time 25.0 hrs
[47] = tested on: SH-SY5Y; assay: Neuroprotective activity against glutamate induced toxicity in human SH-SY5Y cells at low concentration preincubated for 1 hr with compound followed by co-incubation with glutamate and measured after 24 hrs by MTT assay; format: functional, cell-based; settings: time 25.0 hrs
[48] = tested on: SH-SY5Y; assay: Neuroprotective activity against glutamate induced toxicity in human SH-SY5Y cells assessed as effect on cell survival rate at 10 to 20 uM preincubated for 1 hr with compound followed by co-incubation with glutamate and measured after 24 hrs by MTT assay; format: functional, cell-based; settings: dose 10-20 µM, time 25.0 hrs
[49] = tested on: PC-12; assay: Cytoprotective activity against H2O2 induced cell damage in rat PC12 cells at 10 to 20 uM preincubated for 1 hr with compound followed by co-incubation with H2O2 and measured after 24 hrs by MTT assay; format: functional, cell-based; settings: dose 10-20 µM, time 25.0 hrs
[50] = tested on: BV-2; assay: Induction of antioxidant effect in mouse BV-2 cells assessed as prevention of LPS-induced ROS production preincubated for 1 hr with compound followed by LPS stimulation and measured after 24 hrs by DCFH-DA staining based inverted fluorescence microscopy analysis; format: functional, cell-based; settings: time 25.0 hrs
[51] = tested on: SH-SY5Y; assay: Induction of antioxidant effect in human SH-SY5Y cells assessed as prevention of Abeta1-42 induced ROS production preincubated for 1 hr with compound followed by Abeta1-42 stimulation and measured after 24 hrs by DCFH-DA staining based inverted fluorescence microscopy analysis; format: functional, cell-based; settings: time 25.0 hrs
[52] = tested on: Mus musculus; assay: Neuroprotective activity against Abeta42 induced cognition impairement in AD ICR mouse model assessed as increase in body weight at 10 mg/kg measured after 21 days; format: functional, organism-based; settings: time 21.0 day
[53] = tested on: Mus musculus; assay: Neuroprotective activity against Abeta42 induced cognition impairement in AD ICR mouse model assessed as increase in ghrelin level in mouse plasma administered as oral dose for 21 days; format: functional, organism-based; settings: time 21.0 day
[54] = tested on: Mus musculus; assay: Neuroprotective activity against Abeta42 induced cognition impairement in AD ICR mouse model assessed as increase in ghrelin level in mouse brain administered as oral dose for 21 days; format: functional, organism-based; settings: time 21.0 day

Sequence of Cholinesterase (Equus caballus, UniProt P81908) (P81908 whole entry): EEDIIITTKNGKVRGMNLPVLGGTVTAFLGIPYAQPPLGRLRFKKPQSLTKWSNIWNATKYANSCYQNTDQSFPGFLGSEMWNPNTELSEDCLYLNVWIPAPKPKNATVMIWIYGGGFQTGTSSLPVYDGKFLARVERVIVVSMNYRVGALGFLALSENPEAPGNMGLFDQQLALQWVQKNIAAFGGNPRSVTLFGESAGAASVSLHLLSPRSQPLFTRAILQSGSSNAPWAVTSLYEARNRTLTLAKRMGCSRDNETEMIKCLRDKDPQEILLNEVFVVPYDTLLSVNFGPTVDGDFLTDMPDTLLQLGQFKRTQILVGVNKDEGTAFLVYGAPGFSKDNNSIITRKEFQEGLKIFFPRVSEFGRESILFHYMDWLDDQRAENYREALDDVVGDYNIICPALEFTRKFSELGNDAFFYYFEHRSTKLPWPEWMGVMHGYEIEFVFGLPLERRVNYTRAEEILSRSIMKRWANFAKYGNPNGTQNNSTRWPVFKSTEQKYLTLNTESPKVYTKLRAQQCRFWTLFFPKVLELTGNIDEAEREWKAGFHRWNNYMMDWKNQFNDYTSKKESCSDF

SMILES: Nc1nonc1-c1nc2ccccc2n1CC(=O)Nc1cc(F)cc(C(F)(F)F)c1
- IC50 [1]: 255 nM
- IC50 [2]: 155 nM
- viability at 100 µM [3]: 74.4%
- viability at 2.5 µM [4]: 23.4%
- viability at 24 h, 2.5 µM [5]: 39.5%
- viability at 2.5 µM [6]: 39.5%

SMILES: N#Cc1cc(Br)cc(NC(=O)Cn2c(-c3nonc3N)nc3ccccc32)c1
- Activity [7]: Non-Toxic
- AUC(0-t) at 24 h [8]: 628 ng·h/mL
- IC50 [1]: 0.15 nM
- IC50 [2]: 45.2 nM
- viability at 100 µM [3]: 54.6%
- viability at 100 µM [9]: 57.8%
- IC50 at 24 h [10]: 27800 nM
- viability at 100 µM [11]: 72.4%
- Activity [12]: Non-Toxic
- Activity [13]: Non-Toxic
- Activity [14]: Non-Toxic
- Activity [15]: Non-Toxic
- Activity [16]: Non-Toxic
- half-life at 1 µM [17]: 5.75 h
- remaining at 50 min, 1 µM [18]: 89.7%
- AUC(0-t) at 24 h [19]: 860 ng·h/mL
- AUC(0-inf) [20]: 662 ng·h/mL
- AUC(0-inf) [21]: 1090 ng·h/mL
- MRT inf [22]: 11.6 h
- MRT inf [23]: 14.1 h
- half-life [24]: 5.47 h
- half-life [25]: 8.87 h
- Tmax [26]: 9.5 min
- Cmax [27]: 44.73 ng/mL
- Cmax [28]: 488 ng/mL
- bioavailability [29]: 73.4%
- Ratio [30]: 13.33
- Ratio [31]: 2.23
- Ratio [32]: 0.82
- Ratio [33]: 0.54
- Ratio [34]: 0.27
- Ratio [35]: 0.27
- Ratio [36]: 0.88
- Cmax [37]: 1760 ng/mL
- Cmax [38]: 179 ng/mL
- AUC(0-t) [39]: 1160 ng·h/mL
- AUC(0-t) [40]: 356 ng·h/mL
- Kp [41]: 0.1
- Kp [42]: 0.31
- Drug uptake [43]: Active
- Activity [44]: Active
- Activity [45]: Active
- Activity [46]: Active
- Activity [47]: Active
- Activity [48]: Active
- Activity [49]: Active
- Activity [50]: Active
- Activity [51]: Active
- Activity [52]: Active
- Activity [53]: Active
- Activity [54]: Active
